Results: ChEMBL document CHEMBL1201862, “PubChem BioAssay data set” (2004)
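Cultured in 96-well plates, cells were exposed to test compound for 48 hours across five concentrations. GI50 is the concentration that inhibits growth by half.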 The source made the active and inactive calls. Cut-off read from the data, not from the text of the source: active = GI50 up to about 1.1 µM and inactive = higher.

Tests used:
Experiment in all cases: inhibition of tumour cell growth, NCI panel, 48 h
[1] = system: 786-0
[2] = system: ACHN
[3] = system: KM12
[4] = system: NCI-H460
[5] = system: OVCAR-8
[6] = system: RXF 393
[7] = system: SF-295
[8] = system: SF-539
[9] = system: SNB-19
[10] = system: SNB-75
[11] = system: SW-620
[12] = system: TK-10
[13] = system: U-251
[14] = system: CCRF-CEM
[15] = system: OVCAR-4
[16] = system: SK-OV-3

Measured: GI50

CCCc1nc(NC#N)nc(C(=O)Nc2ccccc2)c1CC
inactive: [1] > 100 µM | [2] > 100 µM | [3] > 100 µM | [4] > 100 µM | [5] > 100 µM | [6] > 100 µM | [7] > 100 µM | [8] > 100 µM | [9] > 100 µM | [10] > 100 µM | [11] > 100 µM | [12] > 100 µM | [13] > 100 µM

CC1=C(C(=O)Nc2ccc(Cl)c(Cl)c2)C(c2ccco2)C(C(=O)Nc2ccc(Cl)c(Cl)c2)=C(C)N1
inactive: [1] 13 µM | [2] 5 µM | [14] 6.58 µM | [3] 13.4 µM | [4] 13.7 µM | [15] 12.1 µM | [5] 11.2 µM | [7] 7.91 µM | [8] 13.8 µM | [16] 13.5 µM | [9] 12.7 µM | [10] 13.9 µM | [11] 14.6 µM | [12] 6.44 µM | [13] 11 µM

C#CCOCn1cnc2c(S)ncnc21
inactive: [1] > 100 µM | [2] > 100 µM | [14] > 100 µM | [3] > 100 µM | [4] > 100 µM | [15] > 100 µM | [5] > 100 µM | [6] > 100 µM | [7] > 100 µM | [16] > 100 µM | [9] > 100 µM | [10] 13.6 µM | [11] > 100 µM | [12] > 100 µM | [13] > 100 µM

Nc1ccc(/C=C/c2ccnc3ccccc23)cc1
inactive: [1] 18.6 µM | [2] 19.2 µM | [14] 12.1 µM | [3] 16.2 µM | [4] 16.1 µM | [15] 30 µM | [5] 21.8 µM | [7] 16.1 µM | [8] 20 µM | [9] 27.6 µM | [10] 15.9 µM | [11] 24.7 µM | [12] 17.4 µM | [13] 16.8 µM

C/C(=N\O)C(CN1CCCCC1)C(c1ccccc1)c1c(O)c2ccccc2oc1=O (centres undefined)
inactive: [1] > 100 µM | [2] > 100 µM | [14] > 10 µM | [15] > 100 µM | [5] > 100 µM | [6] > 100 µM | [7] 54.8 µM | [8] > 100 µM | [16] > 100 µM | [9] > 100 µM | [10] > 100 µM | [11] > 100 µM | [12] > 100 µM

c1ccc(COc2cccc3cccnc23)cc1
inactive: [1] > 100 µM | [2] > 100 µM | [14] 31.5 µM | [3] 61.4 µM | [4] > 100 µM | [15] 97.3 µM | [5] > 100 µM | [6] 42.4 µM | [7] > 100 µM | [8] > 100 µM | [16] > 100 µM | [9] > 100 µM | [10] 67.9 µM | [11] > 100 µM | [12] > 100 µM

CC1=NN(C(=O)CC(=O)NC(=O)CC(=O)Nc2ccccc2F)C(=O)C1/N=N/c1ccc([N+](=O)[O-])cc1 (centres undefined)
inactive: [1] 27.7 µM | [2] 30.1 µM | [14] 33.3 µM | [3] 56.1 µM | [4] 37.1 µM | [15] 29.9 µM | [5] 47.6 µM | [7] 37.2 µM | [8] > 100 µM | [16] 45.3 µM | [9] 60.1 µM | [10] 34.2 µM | [11] 20 µM | [12] 44.1 µM | [13] 21.3 µM

CCCCOC(=O)NC(=O)c1cn(CCCOC(=O)NCCCCCCNC(=O)OCCCn2cc(C(=O)NC(=O)OCCCC)c(=O)[nH]c2=O)c(=O)[nH]c1=O
inactive: [1] > 100 µM | [2] > 100 µM | [3] > 100 µM | [4] > 100 µM | [15] > 100 µM | [5] > 100 µM | [6] > 100 µM | [7] > 100 µM | [8] > 100 µM | [16] > 100 µM | [9] 48.4 µM | [10] > 100 µM | [11] > 100 µM | [12] 41.8 µM | [13] > 100 µM

Nc1cc2c(C3OC(CO)C(O)C3O)n[nH]c2c(=S)[nH]1 (centres undefined)
inactive: [1] > 100 µM | [2] > 100 µM | [14] > 100 µM | [3] > 100 µM | [4] > 100 µM | [15] 92.5 µM | [5] > 100 µM | [6] 32.7 µM | [7] > 100 µM | [8] > 100 µM | [16] > 100 µM | [9] > 100 µM | [10] > 100 µM | [11] > 100 µM | [13] > 100 µM

O=C(O)\C=C/C=C/C=C/C=C/C(=O)O
inactive: [1] > 100 µM | [2] > 100 µM | [14] > 100 µM | [3] > 100 µM | [4] > 100 µM | [15] > 100 µM | [5] > 100 µM | [6] > 100 µM | [7] > 100 µM | [8] > 100 µM | [16] > 100 µM | [9] > 100 µM | [10] > 100 µM | [11] > 100 µM | [13] > 100 µM

CC1(C)OC(=O)C(=Cc2ccc(O)cc2)C(=O)O1
inactive: [1] > 100 µM | [2] > 100 µM | [14] > 100 µM | [3] > 100 µM | [4] > 100 µM | [15] > 100 µM | [5] > 100 µM | [7] > 100 µM | [8] > 100 µM | [16] > 100 µM | [9] > 100 µM | [11] > 100 µM | [12] > 100 µM | [13] > 100 µM

CC(=O)OCC1OC(n2cc(I)c(=O)[nH]c2=O)C(OC(C)=O)C(OC(C)=O)C1OC(C)=O (centres undefined)
inactive: [1] > 100 µM | [2] > 100 µM | [14] > 100 µM | [3] > 100 µM | [4] > 100 µM | [15] > 100 µM | [5] > 100 µM | [6] > 100 µM | [7] > 100 µM | [16] > 100 µM | [9] > 100 µM | [10] 82.8 µM | [11] > 100 µM | [12] > 100 µM | [13] > 100 µM

NC(=O)N/N=C(/Cc1nc2ccc(C(=O)c3ccccc3)cc2nc1O)C(=O)Nc1ccc(C(F)(F)F)cc1[N+](=O)[O-]
inactive: [1] > 100 µM | [2] > 100 µM | [14] 36.5 µM | [3] 84.5 µM | [4] 65 µM | [15] > 100 µM | [5] 77.8 µM | [7] 74.8 µM | [8] 66.5 µM | [16] 84.1 µM | [9] > 100 µM | [10] 26 µM | [11] 65.2 µM | [12] > 100 µM | [13] 75 µM
